# Patent publication US20240385182A1, “MASKED FLUOROGENIC LIPID COMPOUNDS, LIPID PARTICLES COMPRISING THE SAME, AND METHODS OF USE THEREOF” (Rutgers, The State University of New Jersey, priority 2023, published 2024)
# Legend:
# [1] = Photophysical characterization of probes and uncaged forms (relative fluorescence quantum yield, extinction coefficient, brightness); format: physicochemical
# Procedure: The pKa of TEG-TC was determined to be 7.1±0.1 using UV-Vis spectrophotometric measurements. Under the confocal imaging conditions (pH 7.5-8.5 with cell-free assays, pH 7.4 with cells), a substantial population of the 7-hydroxycoumarin should exist in its aryloxide form. The change in coumarin fluorogenicity was assessed upon uncaging the probes from the oxobutylphenyl carbonate by measuring the relative fluorescence quantum yield (ΦFrel) values (Table 2). Coumarin 343 was used as a standard, which has an absolute fluorescence quantum yield ([…]) of 0.63 in ethanol. The ΦFrel values of TEG-TC-ONOO^− (entry 1) and DPPC-TC-ONOO^− (entry 3) were measured as 0.08 and 0.09, respectively. […] The ΦFrel values for TEG-TC (entry 2) and DPPC-TC (entry 4), which were synthesized independently, were measured as 0.66 and 0.64, respectively.
# Next, the impact of caging and uncaging of the coumarin or fluorescein moieties on their fluorogenicity was assessed by measuring the relative fluorescence quantum yield (ΦFrel) values (Table 3). Coumarin 343 was used as the standard for measuring ΦFrel of the triazole-coumarin compounds (TEG-TC-H2S, TEG-TC, DPPC-TC-H2S, and DPPC-TC) whereas fluorescein for the triazole-fluorescein compounds (TEG-TF-H2O2, TEG-TF, and DPPC-TF-H2O2, and DPPC-TF). Relative to coumarin 343, whose absolute fluorescence quantum yield (ΦF) is 0.63 in ethanol, ΦFrels of the H2S probes TEG-TC-H2S (entry 1) and DPPC-TC-H2S (entry 3) were determined to be 0.07 and 0.03, respectively.
# The pKa of TEG-TC was previously found to be to be 7.1±0.1 using UV-Vis spectrophotometric measurements. Under the fluorescence activation assay conditions that are employed here (Tris 50 mM, pH 7.5), a substantial population of the coumarin moiety is expected to be in its aryloxide anion form. Relative to fluorescein, whose ΦF is 0.79 in ethanol, ΦFrel values of the H2O2 probes TEG-TF-H2O2 (entry 5) and DPPC-TF-H2O2 (entry 7) were determined to be 0.04 and 0.02, respectively.
# [2] = Confocal imaging of H2O2-sensing giant vesicles
# Description: FIGS. 14A-14B: giant vesicles (GVs) that can sense reductive (FIG. 14A) or oxidative (FIG. 14B) environments. Confocal images acquired for H2S-sensing GV at 405/475 nm (ex/em) (FIG. 14A) and H2O2 sensing GV at 490/520 nm (ex/em) (FIG. 14B). Lipid compositions of GVs: POPC, POPG, cholesterol, and DPPC-TC-H2S (48:21:30:1 molar ratio; FIG. 14A); and POPC, POPG, cholesterol, and DPPC-TF-H2O2 (48.5:21:30:0.5; FIG. 14B). To label vesicle membranes, Liss-Rhod PE dye (563/580 nm) was introduced to the lipid mixture at an insignificant molar ratio (0.1 mol %). Concentrations of RSS and ROS were set to 500 and 100 μM, respectively. Scale bar=5 μm.
# The redox sensing abilities of giant vesicles (GVs) comprising DPPC-TC-H2S or DPPC-TF-H2O2 were investigated. In most biomimetic systems that rely on compartmentalization, physical membrane boundaries are comprised of phospholipids and cholesterol. These lipid self-assemblies have dimensional properties (1-30 μm in diameter) relevant to those of a mammalian plasma membrane (10-100 μm), display physical characteristics feasible for confocal fluorescence imaging, and are conveniently utilized for bottom-up construction of biomimetic protocells. […]
# The vesicle size distribution was analyzed by dynamic light scattering (DLS), confirming the presence of GVs. […]
compound,measurement,setting,value
CCCCCCCCCCCCCCCC(=O)OCC(COP(=O)([O-])OCC[N+](C)(C)Cc1cn(-c2ccc3c(c2)C(=O)OC32c3ccc(OC(=O)OCc4ccc(B5OC(C)(C)C(C)(C)O5)cc4)cc3Oc3cc(OC(=O)OCc4ccc(B5OC(C)(C)C(C)(C)O5)cc4)ccc32)nn1)OC(=O)CCCCCCCCCCCCCCC (racemic) [DPPC-TF-H2O2],Emmax,[1],519.5 nm
same,Exmax,[1],495.2 nm
same,Ext. Coeff.,[1],10685 M⁻¹ cm⁻¹
same,Relative Brightness,"[1]; Table 3, brightness compared to that of DPPC-TF-H2O2",1.0
same,Brightness,[1]; in M⁻¹·cm⁻¹ (unit assumed),214
same,Quantum Yield (relative fluorescence quantum yield ΦFrel),[1]; standard fluorescein,0.02
same,GV fluorescence at the membrane,"[2]; GVs with POPC, POPG, cholesterol, H2O2 (100 PM) over 90 min",substantial fluorescence increase
same,GV fluorescence intensities,"[2]; equimolar other ROS (NO, ·OH, O2·^−)",comparable to those for the untreated GVs
